According to patent publication US20240425898A1, “BACTERIA CLASSIFICATION AND ANALYSIS” (SYSMEX ASTREGO AB, priority 2023, published 2024):

Test system: bacteria in the urine sample
Assay: Gram classification by treatment impact in microfluidic device (FIGS. 10 to 13)
Format: cell-based, Escherichia coli
Conditions: LIN 4 μg/ml and VAN 32 μg/ml at T1=25 min; NaCl 340 mM at 10-22 min
From the text: In this embodiment, bacterial cells from a biological sample are exposed to four different treatments (Tr1 to Tr4). […] The combination of LIN/VAN in the first treatment Tr1 is generally effective against gram-positive bacteria but has no or little antibacterial activity against gram-negative bacteria. […] AMC used in the third treatment Tr3 has broad antibacterial activity against both gram-positive and gram-negative bacteria. It, though, generally has slower antibacterial activity against Staphylococcus as compared to against Enterococcus. FOS used in the fourth treatment Tr4 has a broad antibacterial activity against both gram-positive and gram-negative bacteria. It, though, generally has a slower antibacterial activity against Staphylococcus as compared to against Enterococcus. Bacterial cells from the biological sample are preferably exposed to respective treatment in parallel. In this example, a respective impact parameter is determined for each treatment after a respective treatment period (T1 to T5) and then compared to a respective cutoff or threshold value. The respective treatment periods T1 to T5 could be the same but are typically different and adapted to the particular antimicrobial agent or mixture or salt or salt mixture. […] A urine sample was loaded into the microfluidic device 5 and bacterial growth was monitored in the different sets 130 of cell channels. […]

SMILES: [Cl-].[Na+] [NaCl, sodium chloride]
- candidate gram classification indicated by treatment: gram negative
